Experimental data taken from US20160075680A1, “MODIFIED SOLID SUPPORT FOR THE SYNTHESIS OF OLIGONUCLEOTIDES” (FUNDACIÓN IMDEA NANOCIENCIA, priority 2013, published 2016).

Assay: Comparative in vitro release of Oligo-3 and Oligo-4 from gold nanoparticles with glutathione, followed by fluorescence
Details: PBS, glutathione final concentration 1 mM, Ex: 470, Em: 517 nm
Protocol: To a solution of modified gold nanoparticles prepared in Example 9 in PBS bearing the Oligo-3 or Oligo-4 was added glutathione (final concentration 1 mM). The in vitro release of the oligonucleotides bearing the fluorescein molecule is followed by fluorescence. The fluorescence was recorded at different periods of time. […] Particularly, in the case of Oligo-3, the fluorescence increases fast due to the release of the oligonucleotide from the gold nanoparticle in the presence of glutathione at 1 mM. The fluorescence is quenched when fluorescein is close to the gold nanoparticle, but it increases over time due to the release of the fluorescent oligonucleotide in the presence of glutathione. […] Ex: 470, Em: 517 nm.

Substance | in vitro release of the fluorescein oligonucleotide from gold nanoparticles
Oligo-3: TTTTTTTTTT (SEQ ID NO: 3), fluorescein at position 5′ and the modification herein reported at position 3′ (5' fluorescein; 3' modification; Oligonucleotide sequence as in Oligo-3 and Oligo-4) | release takes place efficiently
Oligo-4: TTTTTTTTTT (SEQ ID NO: 3), fluorescein at 5′, dithiolane group at 3′ but not the disulfide group; comparative (5' fluorescein; 3' dithiolane; Oligonucleotide sequence as in Oligo-3 and Oligo-4) | inefficient release
